# Assay results from patent US20020111314A1, “Novel stimulation of gene expression and protein synthesis of heat shock protein 72/73 (Hsp 70)” (The Trustees of Columbia University, priority 1995, published 2002).
# What was measured:
# HepG2 cells = experiment: Total incorporation of radiolabel (TCA cpm) as indicator of cell toxicity in HepG2 cells; format: cell-based, human; details: MG132 10 or 30 μM, lactacystin 10 μM, data not shown
# Method: (§1) FIGS. 3A-3B: Effects of the other protease inhibitors on Hsp70 biosynthesis in HepG2 cells. HepG2 cells were preincubated in serum-free MEM containing either 1.5% BSA alone (Control), or BSA plus 40 μg/ml of ALLN, 40 μg/ml of ALLM, 50 μg/ml of leupeptin, 50 μg/ml of pepstatin A, 25 μg/ml of E-64d, 1 mM of phenylmethylsulfonyl fluoride (PMSF), 100 KIU/ml of apotinin, 1 mM of Benzamidine (Benz), 200 μM of calpain inhibitor peptide (CIP). Radiolabeling (in the presence of protease inhibitors), lysis and immunoprecipitation were performed as described in FIG. 1. The Hsp70 specific radioactivity (A) and the amount of total incorporated radioactivity (TCA-cpm) (B) were compared with each other. All the values were presented as the mean±SD from three individual culture dishes.
# Preincubation and labeling media each contained either 1.5% bovine serum albumin (BSA) alone, or BSA plus ALLN (40 μg/ml except as otherwise indicated), or BSA plus other protease inhibitors at concentrations indicated in the figure legends. At the indicated times, cells were removed from the 37° C. incubator and placed on ice, washed with cold phosphate-buffer saline (PBS) twice and lysed with lysis buffer containing 1% Triton X-100 (TX100), 1% deoxycholic acid (DOC) and 0.1% SDS in PBS containing proteinase inhibitors: 2 mM phenylmethylsulfonyl fluoride (PMSF); 2 μg/ml ALLN; 2 μg/ml leupeptin; and 2 μg/ml aprotinin. After a 30 min. incubation with lysis buffer at 4° C., the lysates were centrifuged at 14,000 g in a microcentrifuge for 5 min., and the supernatants were adjusted to 1% SDS concentration and boiled for 5 min. to denature the proteins. 1% TX100 was then added to dilute the lysates to a final concentration of 0.1% SDS. Cell lysates containing equal amounts of trichloroacetic acid (TCA)-insoluble radioactivity were used for immunoprecipitations by incubating with individual monoclonal antibody (1 μg/ml) for 2.5 hours at 4° C. Protein-A Sepharose 4B was added afterwards and the lysates incubated for another 1.5 hours at 4° C. to collect the immunocomplexes. […]
# Hsp70 = Hsp70 induction in HepG2 cells ([3H]-leucine labeling, denaturing immunoprecipitation); format: cell-based, human; details: HepG2; 4 hours; MG132 10 μM or 30 μM, lactacystin 10 μM; 30 min labeling
# Method: HepG2 cells were grown up to 95% confluence and then preincubated for 4 hours in a 37° C. incubator with serum-free minimum essential medium (MEM), followed by radiolabeling with 3H-leucine (150 μCi/ml) dissolved in serum-free, leucine-free medium. Preincubation and labeling medium each contained 1.5% bovine serum albumin (BSA) plus different concentrations of ALLN as indicated. After labeling, cells were collected and lysed, and Hsp70 was immunoprecipitated under denaturing conditions as described under Experimental Details. Cell lysates containing an equal amount of TCA-insoluble radioactivity were used for immunoprecipitation. (A): The immunoprecipitates were analyzed by sodium dodecyl sulfate-polyacryamide gel electrophoresis (SDS-PAGE) and fluorography. Numbers on the left-hand side denote molecular markers. (B): The Hsp70 radioactivity was quantitated by scintillation counting and plotted. All the values were presented as means±SD from three individual culture dishes.
# as §1
# FIGS. 9A-9B: Effects of proteasome inhibitors on Hsp70 induction. HepG2 cells were preincubated with the proteasome inhibitors MG132 at a final concentration of either 10 μM or 30 μM (A), or lactacystin at 10 μM (B) for 4 hours under conditions described in FIG. 3. These cells were then subjected to radiolabeling (30 min), cell lysis, and immunoprecipitation with anti-Hsp70 antibody. The experiments with MG132 (A) were repeated twice; the effects of lactacystin (B) were studied in triplicate culture dishes.
# ALLN, leupeptin, mouse anti-human Hsp72/73 monoclonal antibody, a secondary antibody conjugated with horseradish peroxidase (HRP) (goat anti-rabbit immunoglubin G [IgG]), and rabbit anti-rat IgG antibody were from Boehringer Mannheim Co. Anti-Human Hsp25 and anti-human Hsp60 monoclonal antibodies, ALLM, Calpain inhibitor peptide (CIP), dimethyl sulfoxide (DMSO) and dithiothreitol (DTT) were from Sigma. Human Hsp70 oligonucleotide probe was from Oncogene Science. This oligonucleotide was ^32P labeled at the 5′-end by T4 Kinase, which was from Biolabs. ^32P was from ICN Pharmaceutical Inc. L-[4,5-^3H] leucine was from Amersham Co. Anti-human Bip (immunoglobulin heavy chain binding protein, also called Grp78), anti-human Hsp27, anti-human Hsp60, and anti-human Hsp90 monoclonal antibodies were from Stress Genes. Anti-human Hsp86 and Hsp104 antibodies were from Affinity Bioreagent Inc. Nitrocellular transfer and immobilization membranes were from Schleicher & Schuell, Keene, N.H. RNA extraction kits were from Biotect, Tex. The polyclonal antibody against the human HSF1 protein was a generous gift from Dr. Carl Wu of the National Institute of Health (Rabindran, et al., 1993). Ethylene glycol bis(succunimidylsuccinate) (EGS) was from Pierce. Cbz-leucyl-leucyl-leucinal (MG132) was a gift of Dr. H. Ploegh at the Massachusetts Institute of Technology. All the other tissue culture supplies and chemicals were obtained from supplies as previously described (Dixon, et al., 1991). The HepG2 cell culture conditions were maintained as previously described (Dixon, et al., 1991).
# [1] = tested on: cysteine protease, serine protease, trypsin or chymotrypsin; details: even upon extended exposure; Ward 1995, Fenteany 1995; cited from earlier work
smiles,measurement,setting,value
CC(=O)N[C@@H](CSC(=O)[C@]1([C@@H](O)C(C)C)NC(=O)[C@H](C)[C@@H]1O)C(=O)O [lactacystin],toxicity to the cells (TCA-precipitable radioactivities),HepG2 cells,without obvious toxicity
same,induction of Hsp70 levels by proteasome inhibitors (FIG. 9),Hsp70,induced Hsp70 levels dramatically
same,"effect on cysteine protease, serine protease, trypsin or chymotrypsin",[1],no detectable effect
